These results are taken from patent publication US8946436B2, “Oxazolidinone compounds and their uses in preparation of antibiotics” (Sichuan Gooddoctor Pharmaceutical Group Co., Ltd., priority 2011, dated 2015).

One assay has as its system ATCC 25923. The experiment in a line: Mouse model of systemic infection. It is filed as in vivo, C57 mice. The note with it: intravenous. From the text:
Animal model: SPF grade C57 mice, 4-6 weeks age, weight 18-22 g, ten mice per group;
Infectious strain: ATCC 25923, grown in a MHB medium to a period of logarithmic growth;
Test compounds: Compound 13f prepared according to the methods above, and Linezolid as a control, purchased from Airsea Pharmaceutical Ltd., (Taizhou, ZheJiang Province, China;
Formulation and dosage of the test compounds: To evaluate the treating effect of compound 13f, an animal model of intraperitoneal infection by bacteria was established and grouped into 13f group and Linezolid group. The same dosage of the compound 13f and Linezolid was administrated to the groups, respectively.
The minimum lethal dose (MLD) was determined as follows: Bacterial stock liquid cultured overnight was adjusted to 0.5 McFarland with saline solution, and subsequently subjected to a proper serial dilution. 3-5 dilutions with different concentrations of the bacteria were used to infect mice (10 mice per concentration), respectively, by intraperitoneal injection with a volume of 0.5 mL of the dilution. The minimum concentration at which 100% mice were dead was regarded as MLD. For purpose of ensuring experimental reliability, two control groups (MLD control group and 1/10MLD control group) were used in this experiment. The mortality of the MLD control group was 100%, while the mortality of the 1/10OMLD control group was 30%. […] To enhance virulence of the infectious bacteria, 15% yeast was added into the bacterial liquid for infection.
Experimental animal and grouping: SPF grade C57 mice (purchased from Experiment Animal Center, West China Hospital of Sichuan University), 4-6 weeks old, weighting 18-22 g, were randomly divided into groups, including model group, and treating groups consisting of group administrated with compound 13f at 5 mg/kg, group administrated with compound 13f at 10 mg/kg, group administrated with Linezolid at 5 mg/kg and group administrated with Linezolid at 10 mg/kg, with ten mice per group.
1) Based on the MLD result from the preliminary experiment, the mice were infected by intraperitoneal injection with a saline suspension of ATCC 25923, containing 15% yeast. Injection dosage of the bacteria was 0.2 OD/mice.
2) Administration time and frequency: The above mentioned compounds (compound 13f and Linezolid) were administrated to the mice of the treating groups 1 hour before and 4 hour after the infection, respectively. Meanwhile, the mice of the model group received only solvents in the same volume as that of the compound solution administrated in the treating group. The treating groups includes compound 13f group at 10 mg/kg, compound 13f group at 5 mg/kg, Linezolid group at 10 mg/kg and Linezolid group at 5 mg/kg.
3) Administration route: intravenous injection;
4) Dissolving compounds: The compounds were dissolved with 30% water solution of hydroxypropyl-β-cyclodextrin;
5) Efficacy observation: After infection and administration, the appetites, activities, symptoms and signs of the test mice were observed regularly. The survival rate was monitored every 4 h. The observation lasted for 7 days. During this period of observation, dissection of dying mice was immediately carried out after their death, and a histopathological examination was conducted, if necessary.
6) Evaluation: Main indexes include survival time, survival rate, and CFU count of organ and blood.

The test system of the next assay is S. aureus. The assay can be described thus: In vitro antibacterial activity (MIC), S. aureus. The format is cell-based, Staphylococcus Aureus. The note with it: for MIC: S. aureus (12 strains). Here is the method: Strains: strain ATCC25923 is available from the American Type Culture Collection, and is used as a standard strain of Staphylococcus Aureus;
Liquid medium: MH bouillon culture medium, a product of BD Company, United States of American;
Tested Compounds: compounds 12a, 13 and 14 prepared according to the methods above, and Linezolid purchased from Pfizer.
The test strain was inoculated into the liquid medium and cultured at 37° C. for 16-18 h. The culture liquid and MH medium were put into two blank wells of a 96-well plate, respectively. Then, the absorptions thereof were measured by a Microplate reader. The difference between the absorption values of the culture liquid and MH medium is the adsorption of the bacteria. The concentration of the culture liquid can be calculated according to the formula of 1OD=50 million CFU/mL. The culture liquid was diluted with the MH bouillon culture medium to 5000 CFU/mL for further use.
Compounds 12a, 13 and 14 were dissolved in DMSO to 1 mg/mL, and then filtered with a 0.22 μm filter to obtain the compound solutions. And then they were gradually diluted to a desired concentration (10× final concentration) with the liquid medium, so as to obtain a series of dilutions. The final concentration grade of the dilutions of each tested compound consists of 14 concentrations, which includes: 0.03125 μg/mL, […], 0.125 μg/mL, 0.25 μg/mL, […], 1 μg/mL, 2 μg/mL, 4 μg/mL, 8 μg/mL, 16 μg/mL, 32 μg/mL, 64 μg/mL, 128 μg/mL and 256 μg/mL.
10 μL of each of the compound dilutions above was added into a well of a 96-well plate. 90 μL of the culture liquid (5000 CFU/mL) was added into each of the wells, respectively, mixed with the dilutions to render the tested compound concentration to the final concentration. The resulted mixture was incubated at 37° C. for 16-18 h, and then the OD630 thereof was measured. A culture liquid free of the tested compounds is used as a blank control, and three parallel tests with the same concentration of each compound were performed. The minimum inhibitory concentration (MIC) of each compound on the standard strain of Staphylococcus Aureus and other test strains was determined. Specifically, among the culture liquid contained in the wells of the micro-plate, the first three lowest concentrations under which growth of the test strains could be observed were chose for further evaluation of the MIC. A culture liquid free of tested compounds was used as a blank control. Each of the culture liquids was homogenized independently, and then was diluted with a sterile saline. Each of the diluted culture liquids was plated onto a MH bouillon plate and incubated at 37° C. for 20 h in incubator. After the incubation, the number of the colonies on each plate was counted. As compared with the blank control group, the lowest concentration of each of the test compound groups, at which 80% reduction in the colony number of the strains was achieved, was recorded as the MIC.

Where [1] appears, read: 10 mg/kg, 1 hour before and 4 hour after infection, 7 days observation.

Converted amounts (≈) assume the structure as drawn. Like-named read-outs stand apart in the source and are kept apart here.

As a reminder, the mortality is the percentage killed. A word on the MIC: it is the lowest concentration found to suppress growth. On to `CC(=O)NC[C@H]1CN(c2ccc(-n3cc(-c4ccccn4)cn3)c(F)c2)C(=O)O1` [Compound 13f, (S)-N-((3-(3-fluoro-4-(4-(pyridin-2-yl)-1H-pyrazol-1-yl)phenyl)-2-oxooxazolidin-5-yl)methyl)acetamide], for which, in the assay on ATCC 25923 (5 mg/kg), the “in vivo treatment effect and protection effect compared with Linezolid” value was “better in vivo treatment effect and protection effect”; the “time after infection at which death of mice was observed” value worked out at 5 h. The compound further had a mortality with ATCC 25923 (5 mg/kg, in 24 h) of 20%. In the assay with ATCC 25923 (10 mg/kg), the “therapeutic effect compared with linezolid” value is listed as “same therapeutic effect as linezolid”. The same compound yielded a survival rate in the assay on ATCC 25923 (setting [1]) of 100%. In the assay with S. aureus (Staphylococcus aureus, read-out: MIC), the MIC lay within 0.25 to 2 µg/mL (≈ 0.632 to 5.06 µM). Also, the “activity ranking among test compounds” value in the assay on S. aureus (Table 2: S. aureus, S. pneumoniae, S. agalactiae and E. faecalis) is on record as “most optimum activity”.
For the compound `CC(=O)NC[C@H]1CN(c2ccc(N3CCOCC3)c(F)c2)C(=O)O1` [Linezolid, reference compound], the “time after infection at which death of mice was observed” value with ATCC 25923 (5 mg/kg) turned out to be 5 h. Moreover, the mortality is 50% with ATCC 25923 (5 mg/kg, in 24 h); 70% in the assay with ATCC 25923 (5 mg/kg, in 48 h); 100% in the assay with ATCC 25923 (5 mg/kg, in 72 h). Also, the protection rate in the assay with ATCC 25923 (setting [1]) was 100%. Besides, the MIC against S. aureus lay in the range of 4 to 32 µg/mL.
